Where two headings read alike, the source gives them in different places.
What was measured:
H. pylori cells (SS1) = assay: pH shock experiment in vivo (urea-dependent survival of H. pylori); format: cell-based, Helicobacter pylori; settings: for surviving bacteria, pH =1: 100 mM HCl pH 1, 5 mM urea; for surviving bacteria, pH =1 / surviving bacteria, pH =7.2: 30 min; for surviving bacteria, pH =7.2: PBS pH 7.2, 5 mM urea; for inhibition at 50 µM / inhibition at 100 µM / inhibition at 200 µM: Helicobacter pylori, 0.5 h
Description: H. pylori cells (SS1) were harvested, and the concentration was adjusted to Mc = 4 with saline. Then, bacterial samples were mixed with AHA (positive control, 5 mM) or one of the five alkaloids from Rhizoma Coptidis (coptisine, berberine, jatrorrhizine, epiberberine, and palmatine) in 100 mM HCl (pH = 1) or PBS (pH = 7.2) at 37 °C with or without 5 mM urea. After 30 min of incubation, bacteria were collected by centrifugation at 2000g for 10 min and resuspended in the same volume of PBS. A dilution series (1:1–1:10000) was made from the samples, and the dilutions were plated on solid agar for 5 days to form single colony. Samples from urea-free wells were used as controls. Results are expressed as CFU/mL; the experiment was repeated in triplicate. Inhibition rate was calculated using the following equation: Inhibition rate = (Urea group bacterial mean − X group bacterial mean)/Urea group bacterial mean ×100%, where X represents each experimental group.

H. pylori urease (HPU) [1] = biological target: T1, H. pylori urease (HPU) (Helicobacter pylori, UniProt P69996); assay: Urease inhibition assay in vitro (modified Berthelot method); format: biochemical
T1 construct: Crude HPU was obtained according to the method described by Matsubara et al; endogenous in cells; host or cells: cultured Helicobacter pylori (strain not specified)
Description: All strains were cultured in Columbia agar base containing 7% sheep blood at 37 °C in a micro-aerophilic environment (5% O2, 10% CO2, and 85% N2). After 3 days, H. pylori was scraped and suspended in phosphate buffered saline (PBS). Turbidimetry was employed to adjust the concentrations of different H. pylori strains (turbidity equivalent to 1.0 McFarland standard). Crude HPU was obtained according to the method described by Matsubara et al.[42]
This assay was performed using the modified Berthelot method (phenol-hypochlorite) in 96 well plates. At the beginning of each reaction, different concentrations of urease solution and 150 mM urea as a substrate were mixed in 20 mM HEPES buffer (pH 7.5) at 37 °C. After a 20-min reaction, urease activity was tested by measuring the concentration of ammonia produced by the reaction at 595 nm using the microplate reader (Thermo Fisher Multiskan FC, Instruments, Inc., USA) at ambient temperature. […] One unit (U) of urease activity was defined as the amount of urease required to catalyse 1 μmol urea per min. […]
Coptisine’s ability to inhibit urease activity was determined by measuring amounts of ammonia produced using the modified Berthelot method described above. […] Residual activity (RA %) for each assay was calculated using the following equation: RA % = (activity with inhibitors/activity without inhibitors) × 100%. […]

jack bean urease (JBU) [2] = biological target: T2, jack bean urease (JBU) (Canavalia ensiformis, UniProt P07374); assay: as above; format: biochemical
T2 construct: purchased Sigma Aldrich (Steineheim, Germany) type III (catalogue number not given)
Description: This assay was performed using the modified Berthelot method (phenol-hypochlorite) in 96 well plates. At the beginning of each reaction, different concentrations of urease solution and 150 mM urea as a substrate were mixed in 20 mM HEPES buffer (pH 7.5) at 37 °C. After a 20-min reaction, urease activity was tested by measuring the concentration of ammonia produced by the reaction at 595 nm using the microplate reader (Thermo Fisher Multiskan FC, Instruments, Inc., USA) at ambient temperature. […] One unit (U) of urease activity was defined as the amount of urease required to catalyse 1 μmol urea per min. These experiments were repeated in triplicate.
Coptisine’s ability to inhibit urease activity was determined by measuring amounts of ammonia produced using the modified Berthelot method described above. The assay mixture, which contained 200 μL of enzyme and 200 μL of coptisine solution (0.16–2.51 mM) in 200 μL of 20 mM HEPES buffer (pH 7.5), was incubated for 20 min at 37 °C in 96-well plates. The reaction was then initiated by adding urea solution (150 mM) to determine residual urease activity. AHA was used as a standard urease inhibitor. […] Residual activity (RA %) for each assay was calculated using the following equation: RA % = (activity with inhibitors/activity without inhibitors) × 100%. […]

H. pylori urease (HPU) [3] = biological target: T1, H. pylori urease (HPU); assay: Determination of urease inhibition type (Lineweaver-Burk plots); format: biochemical
Description: (§1) Using the methods described above, the type of enzyme inhibition induced by coptisine was determined by examining changes in the Michaelis constant (KM) and maximum velocity (vmax) values from Lineweaver–Burk plots of 1/v versus 1/urea. The inhibition constant was determined using secondary plots of the apparent KM/vmax or 1/vmax versus the concentration of coptisine. The assays were performed in triplicate.

jack bean urease (JBU) [4] = biological target: T2, jack bean urease (JBU); assay: as above; format: biochemical
Description: as §1

UreG dimers = biological target: T3, UreG dimers (Helicobacter pylori, UniProt Q09066); assay: Nickel uptake assay (dialysis, atomic absorption spectroscopy); format: biochemical; settings: 25, 50 and 100 μM coptisine, 2.5 μM UreG dimer, versus control, all p < 0.01
T3 construct: HisSUMO (N, cleaved yes); made in house; host or cells: Escherichia coli
Description: UreG dimers were obtained using GTPγS as described previously. Briefly, the UreG dimer was purified by incubating apo-UreG at 3 mg/mL on ice with 1 mM GTP, 2 mM MgSO4, and 0.5 mM NiSO4 for 15 min. Nickel-charged UreG dimers were then separated from excess GTP and nickel using a Sephadex G25 desalting column. UreG dimers (2.5 μM) were injected into dialysis bag (6–8 kDa) and mixed with different concentrations of coptisine (25, 50, or 100 μM) or DMSO (control). The dialysis bag was sealed and placed in beakers containing UreG dimer buffer at 37 °C in a water bath. After 30 min, dialysis bags were placed in fresh buffer and the sample was incubated for 2 h at 4 °C with continuous shaking to initiate dialysis. The dialysis process was repeated three times. Samples were then removed and nickel concentrations were measured using atomic absorption spectroscopy (AA-7000, SHIMADZU). Nickel concentration was determined by comparing measurements against a standard curve of known nickel concentrations.

[5] = pH 1, read-out: Inhibition rate, pH =1
[6] = pH 7.2, read-out: Inhibition rate, pH =7.2
[7] = Lineweaver-Burk plots, 1.00, 2.00 or 4.00 mM Cop

T2 sequence (P07374 whole entry, looked up): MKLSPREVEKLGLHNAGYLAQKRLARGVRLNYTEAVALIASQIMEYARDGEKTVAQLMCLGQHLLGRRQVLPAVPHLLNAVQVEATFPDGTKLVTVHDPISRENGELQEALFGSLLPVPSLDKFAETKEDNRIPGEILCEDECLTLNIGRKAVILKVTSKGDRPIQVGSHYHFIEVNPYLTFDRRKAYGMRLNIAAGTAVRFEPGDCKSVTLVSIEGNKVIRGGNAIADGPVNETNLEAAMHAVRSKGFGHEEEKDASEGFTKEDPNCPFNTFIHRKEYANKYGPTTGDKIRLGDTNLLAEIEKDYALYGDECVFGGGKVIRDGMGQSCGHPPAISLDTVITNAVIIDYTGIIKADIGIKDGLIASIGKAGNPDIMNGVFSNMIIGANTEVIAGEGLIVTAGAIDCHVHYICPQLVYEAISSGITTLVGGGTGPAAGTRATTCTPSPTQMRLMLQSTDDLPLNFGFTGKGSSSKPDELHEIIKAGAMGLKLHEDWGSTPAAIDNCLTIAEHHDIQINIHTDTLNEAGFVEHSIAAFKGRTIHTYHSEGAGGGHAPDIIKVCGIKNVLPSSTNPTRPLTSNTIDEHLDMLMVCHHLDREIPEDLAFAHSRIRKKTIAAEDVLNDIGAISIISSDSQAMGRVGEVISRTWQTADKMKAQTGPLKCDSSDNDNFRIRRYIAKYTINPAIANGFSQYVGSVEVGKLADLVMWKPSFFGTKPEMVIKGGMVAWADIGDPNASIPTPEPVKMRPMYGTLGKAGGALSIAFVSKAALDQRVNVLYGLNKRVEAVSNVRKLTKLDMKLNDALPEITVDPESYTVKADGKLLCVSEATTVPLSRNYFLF
T1 sequence (P69996 whole entry): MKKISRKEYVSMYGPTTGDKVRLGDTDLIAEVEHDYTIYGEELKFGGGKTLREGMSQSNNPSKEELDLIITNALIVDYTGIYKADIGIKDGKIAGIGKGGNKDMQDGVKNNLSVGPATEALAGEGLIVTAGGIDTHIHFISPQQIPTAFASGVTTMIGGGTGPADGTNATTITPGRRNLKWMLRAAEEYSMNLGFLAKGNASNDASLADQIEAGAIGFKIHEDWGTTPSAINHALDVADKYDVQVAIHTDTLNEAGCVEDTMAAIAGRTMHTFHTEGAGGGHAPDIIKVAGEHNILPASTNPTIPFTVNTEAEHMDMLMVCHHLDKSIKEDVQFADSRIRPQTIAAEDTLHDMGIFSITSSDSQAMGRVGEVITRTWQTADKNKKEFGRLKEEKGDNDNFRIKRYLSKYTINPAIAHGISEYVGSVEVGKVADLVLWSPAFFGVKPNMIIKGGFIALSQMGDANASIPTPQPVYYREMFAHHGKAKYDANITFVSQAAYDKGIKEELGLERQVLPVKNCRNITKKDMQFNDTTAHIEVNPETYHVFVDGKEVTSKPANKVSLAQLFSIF
T1 sequence (P14916 whole entry, further chain): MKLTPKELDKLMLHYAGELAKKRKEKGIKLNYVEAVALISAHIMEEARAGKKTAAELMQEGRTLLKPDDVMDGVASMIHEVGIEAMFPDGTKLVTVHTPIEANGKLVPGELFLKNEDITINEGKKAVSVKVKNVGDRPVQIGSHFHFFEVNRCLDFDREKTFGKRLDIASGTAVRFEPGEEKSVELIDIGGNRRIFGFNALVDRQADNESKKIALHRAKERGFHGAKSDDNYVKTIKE
T3 sequence (Q09066 whole entry): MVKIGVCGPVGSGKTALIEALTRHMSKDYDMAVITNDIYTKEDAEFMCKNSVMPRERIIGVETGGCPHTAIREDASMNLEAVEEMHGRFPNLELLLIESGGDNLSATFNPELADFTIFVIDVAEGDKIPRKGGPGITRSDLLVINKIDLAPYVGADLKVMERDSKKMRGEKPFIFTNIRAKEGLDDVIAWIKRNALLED

## c1c2c(cc3c1OCO3)-c1cc3ccc4c(c3c[n+]1CC2)OCO4 [Coptisine]
H. pylori cells (SS1); 50 μM compound
  surviving bacteria, pH =1: 129 ± 31 CFU/mL
  surviving bacteria, pH =7.2: 1.0 ± 0.2 ×10^4 CFU/mL
H. pylori cells (SS1); 100 μM compound
  surviving bacteria, pH =1: 25 ± 6 CFU/mL
  surviving bacteria, pH =7.2: 1.3 ± 0.3 ×10^4 CFU/mL
H. pylori cells (SS1); 200 μM compound
  surviving bacteria, pH =1: 7 ± 3 CFU/mL
  surviving bacteria, pH =7.2: 1.2 ± 0.3 ×10^4 CFU/mL
H. pylori cells (SS1); [5]
  inhibition at 50 µM: 72.7%
  inhibition at 100 µM: 94.7%
  inhibition at 200 µM: 98.5%
H. pylori cells (SS1); [6]
  inhibition at 50 µM: 0%
  inhibition at 100 µM: 0%
  inhibition at 200 µM: 0%
H. pylori urease (HPU) [1]
  IC50: 1780 ± 60 µM
Jack bean urease (JBU) [2]
  IC50: 260 ± 20 µM
H. pylori urease (HPU) [3]
  Ki: 50 µM
H. pylori urease (HPU) [3]; [7]
  inhibition type, HPU: mixed-type inhibitor
H. pylori urease (HPU) [3]; from vertical intercept versus inhibitor concentration
  Kis (binding to the enzyme substrate complex), HPU: 1.48 mM
Jack bean urease (JBU) [4]
  Ki: 170 µM
Jack bean urease (JBU) [4]; [7]
  inhibition type, JBU: non-competitively inhibits
Jack bean urease (JBU) [4]; from intercept versus Cop concentration
  Kis, JBU: 0.25 mM
UreG dimers
  bound nickel concentrations of UreG dimers: markedly decreased

Reference: article PMC6136390, “Coptisine-induced inhibition of Helicobacter pylori: elucidation of specific mechanisms by probing urease active site and its maturation process” (Journal of Enzyme Inhibition and Medicinal Chemistry, 2018)
